Assay results published in paper PMC11953117 (Cancer Chemotherapy and Pharmacology, 2025).
Read-outs that look alike come from different tables or passages of the source.

Assays:
[1] = cited from earlier work
[2] = Relative dose intensity (RDI) of capivasertib monotherapy; format: in vivo, human
Method: (§1) The exposure–response analyses were conducted using a subset of patients from the PopPK analysis where capivasertib was used as monotherapy. […] As different schedules were assessed between and within studies, the exposure metrics were derived for the last dose of the last dosing day in the second week of treatment (i.e. on days 14, 11, and 9 for the continuous, [4/3] and [2/5] schedules, respectively), to ensure SS conditions, using the planned dose. […] The relative dose intensity (RDI) was calculated as the percentage of the average weekly dose relative to the PWD to examine the tolerability of capivasertib monotherapy at the given dosing schedules.

[3] = Capivasertib exposure metrics at steady state projected with PopPK model, patients with solid tumors; format: in vivo; settings: human, plasma, oral; for concentration at 12 h: read-out: Cmin
Method: Study 1 (NCT01226316) was a phase 1 open-label multipart study. […] The duration of the treatment cycles was 21 days. […] [18]. […] [18, 25, 39].
Study 4 (NCT01353781) was a phase 1 dose-escalation study in Japanese patients with advanced solid malignancies.
as §1

[4] = 80 mg, Study 1, Continuous BID, PWD 1120 mg, N=5, median (range)
[5] = 80 mg, Study 4 (Japanese patients), Continuous BID, PWD 1120 mg, N=3, median (range)
[6] = 240 mg, Study 4 (Japanese patients), Continuous BID, PWD 3360 mg, N=7, median (range)

In the case of `NC1(C(=O)N[C@@H](CCO)c2ccc(Cl)cc2)CCN(c2ncnc3[nH]ccc23)CC1` [capivasertib, 4-amino-N-[(1S)-1-(4-chlorophenyl)-3-hydroxypropyl]-1-(7H-pyrrolo[2,3-d]pyrimidin– 4-yl)piperidine-4-carboxamide], the “dose proportionality of plasma exposure” value ([1]; dose range of 80–480 mg) is listed as “approximately dose proportional”, the half-life ([1]; patients) is listed as “approximately 8 h” and the RDI ([2]; OAK, [4/3] BID, 480 mg, PWD 3840 mg, N=30, median (range)) is listed as 100 (45.6–115.4) %. The RDI ([2]; Study 1, Continuous BID, 80 mg, PWD 1120 mg, N=5, median (range)) was 100.0 (95.9–100.6) %, the RDI ([2]; Study 1, Continuous BID, 160 mg, PWD 2240 mg, N=5, median (range)) was 97.6 (83.5–102.3) % and the RDI ([2]; Study 1, Continuous BID, 240 mg, PWD 3360 mg, N=6, median (range)) was 100.3 (98.8–100.9) %. For the same molecule, the RDI ([2]; Study 1, Continuous BID, 320 mg, PWD 4480 mg, N=12, median (range)) was 98.1 (37.2–102.4) %, the RDI ([2]; Study 1, Continuous BID, 400 mg, PWD 5600 mg, N=11, median (range)) was 80.3 (55.4–102.1) % and the RDI ([2]; Study 1, Continuous BID, 480 mg, PWD 6720 mg, N=6, median (range)) was 50.2 (45.3–83.3) %. The RDI ([2]; Study 1, Continuous BID, 600 mg, PWD 8400 mg, N=2, median (range)) was 103.1 (100–106.2) %, the RDI ([2]; Study 1, [2/5] BID, 640 mg, PWD 2560 mg, N=8, median (range)) was 94.0 (80.9–109.1) % and the RDI ([2]; Study 1, [2/5] BID, 800 mg, PWD 3200 mg, N=14, median (range)) was 101.1 (42.5–133.3) %. The RDI ([2]; Study 1, [4/3] BID, 480 mg, PWD 3840 mg, N=127, median (range)) was 97.9 (26.4–138.9) %, the RDI ([2]; Study 1, [4/3] BID, 640 mg, PWD 5120 mg, N=10, median (range)) was 100.0 (70.5–122.2) % and the RDI ([2]; Study 4 (Japanese patients), Continuous BID, 80 mg, PWD 1120 mg, N=3, median (range)) was 100.0 (88.7–102.3) %. For the same molecule, the RDI ([2]; Study 4 (Japanese patients), Continuous BID, 240 mg, PWD 3360 mg, N=7, median (range)) was 100.0 (41.9–106.7) %, the RDI ([2]; Study 4 (Japanese patients), Continuous BID, 320 mg, PWD 4480 mg, N=6, median (range)) was 91.5 (59.3–101.1) % and the RDI ([2]; Study 4 (Japanese patients), Continuous BID, 400 mg, PWD 5600 mg, N=5, median (range)) was 72.1 (51.4–85.7) %. For the same molecule, the RDI ([2]; Study 4 (Japanese patients), [2/5] BID, 640 mg, PWD 2560 mg, N=6, median (range)) was 111.2 (100–119) %, the RDI ([2]; Study 4 (Japanese patients), [4/3] BID, 360 mg, PWD 2880 mg, N=8, median (range)) was 107.9 (91.4–112) % and the RDI ([2]; Study 4 (Japanese patients), [4/3] BID, 480 mg, PWD 3840 mg, N=6, median (range)) was 107.9 (79.1–108.6) %. It also gave an RDI ([2]; [4/3] and [2/5] schedules at all dose levels) greater than 90%, an RDI ([2]; continuous schedule, 400 and 480 mg doses) of no more than 80% and an AUC ([3]; 80 mg, Study 1, Continuous BID, 80 mg, PWD 1120 mg, N=5, median (range), read-out: AUCss(0–12 h)) of 870 ng·h/mL. It also gave a concentration at 12 h ([3]; 80 mg, Study 1, Continuous BID, 80 mg, PWD 1120 mg, N=5, median (range)) of 30 ng/mL, an AUC at 1 week [3, 4] of 12200 ng·h/mL and a Cmax [3, 4] of 150 ng/mL. The AUC ([3]; 80 mg, Study 4 (Japanese patients), Continuous BID, 80 mg, PWD 1120 mg, N=3, median (range), read-out: AUCss(0–12 h)) was 1480 ng·h/mL, the concentration at 12 h ([3]; 80 mg, Study 4 (Japanese patients), Continuous BID, 80 mg, PWD 1120 mg, N=3, median (range)) was 60 ng/mL and the AUC at 1 week [3, 5] was 20700 ng·h/mL. For the same molecule, the Cmax [3, 5] was 220 ng/mL, the AUC ([3]; 160 mg, Study 1, Continuous BID, 160 mg, PWD 2240 mg, N=5, median (range), read-out: AUCPWD) was 41800 ng·h/mL and the AUC ([3]; 160 mg, Study 1, Continuous BID, 160 mg, PWD 2240 mg, N=5, median (range), read-out: AUCss(0–12 h)) was 2990 ng·h/mL. The concentration at 12 h ([3]; 160 mg, Study 1, Continuous BID, 160 mg, PWD 2240 mg, N=5, median (range)) was 110 ng/mL, the Cmax ([3]; 160 mg, Study 1, Continuous BID, PWD 2240 mg, N=5, median (range)) was 420 ng/mL and the AUC ([3]; 240 mg, Study 1, Continuous BID, 240 mg, PWD 3360 mg, N=6, median (range), read-out: AUCPWD) was 44700 ng·h/mL. It also gave an AUC ([3]; 240 mg, Study 1, Continuous BID, 240 mg, PWD 3360 mg, N=6, median (range), read-out: AUCss(0–12 h)) of 3190 ng·h/mL, a concentration at 12 h ([3]; 240 mg, Study 1, Continuous BID, 240 mg, PWD 3360 mg, N=6, median (range)) of 110 ng/mL and a Cmax ([3]; 240 mg, Study 1, Continuous BID, PWD 3360 mg, N=6, median (range)) of 530 ng/mL. It also gave an AUC ([3]; 240 mg, Study 4 (Japanese patients), Continuous BID, 240 mg, PWD 3360 mg, N=7, median (range), read-out: AUCss(0–12 h)) of 5220 ng·h/mL, a concentration at 12 h ([3]; 240 mg, Study 4 (Japanese patients), Continuous BID, 240 mg, PWD 3360 mg, N=7, median (range)) of 170 ng/mL and an AUC at 1 week [3, 6] of 73000 ng·h/mL. It also gave a Cmax [3, 6] of 820 ng/mL, an AUC ([3]; 320 mg, Study 1, Continuous BID, 320 mg, PWD 4480 mg, N=12, median (range), read-out: AUCPWD) of 82000 ng·h/mL and an AUC ([3]; 320 mg, Study 1, Continuous BID, 320 mg, PWD 4480 mg, N=12, median (range), read-out: AUCss(0–12 h)) of 5860 ng·h/mL. For the same molecule, the concentration at 12 h ([3]; 320 mg, Study 1, Continuous BID, 320 mg, PWD 4480 mg, N=12, median (range)) was 200 ng/mL, the Cmax ([3]; 320 mg, Study 1, Continuous BID, PWD 4480 mg, N=12, median (range)) was 870 ng/mL and the AUC ([3]; 320 mg, Study 4 (Japanese patients), Continuous BID, 320 mg, PWD 4480 mg, N=6, median (range), read-out: AUCss(0–12 h)) was 6560 ng·h/mL. It also gave a concentration at 12 h ([3]; 320 mg, Study 4 (Japanese patients), Continuous BID, 320 mg, PWD 4480 mg, N=6, median (range)) of 150 ng/mL.
